Assay results taken from PubChem BioAssay (NCI).
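Interpolation was linear, between the two tested concentrations surrounding the appropriate level; five concentrations were tested over 48 hours in 96-well plates. GI50: concentration for 50% inhibition of growth. TGI marks complete inhibition of growth.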

Tests used:
Assay in all cases: growth of human tumour cells (NCI), 48 h
[1] = system: NCI-H23 lung
[2] = system: NCI-H460 lung
[3] = system: NCI-H522 lung
[4] = system: NCI/ADR-RES ovarian
[5] = system: OVCAR-3 ovarian
[6] = system: OVCAR-4 ovarian
[7] = system: OVCAR-5 ovarian
[8] = system: OVCAR-8 ovarian
[9] = system: PC-3 prostate
[10] = system: RPMI-8226 leukemia
[11] = system: RXF 393 renal
[12] = system: SF-268 CNS
[13] = system: SF-295 CNS
[14] = system: SF-539 CNS
[15] = system: SK-MEL-2 melanoma
[16] = system: SK-MEL-28 melanoma
[17] = system: SK-MEL-5 melanoma
[18] = system: SK-OV-3 ovarian
[19] = system: SN12C renal
[20] = system: SNB-19 CNS
[21] = system: SNB-75 CNS
[22] = system: SR leukemia
[23] = system: SW-620 colon
[24] = system: T-47D breast
[25] = system: TK-10 renal
[26] = system: U251 CNS
[27] = system: UACC-257 melanoma
[28] = system: UACC-62 melanoma
[29] = system: UO-31 renal

## CN1CCN(Cc2ccc(NC(=O)c3cncc(C#Cc4cnc5ccc(N)nn45)c3)cc2C(F)(F)F)CC1
[1]
  GI50: 777 nM
  TGI: 2860 nM
[2]
  GI50: 526 nM
  TGI: 3290 nM
[3]
  GI50: 234 nM
  TGI: 1270 nM
[4]
  GI50: 25600 nM
  TGI: 50000 nM
[5]
  GI50: 1670 nM
  TGI: 12600 nM
[6]
  GI50: 1580 nM
  TGI: 16800 nM
[7]
  GI50: 1410 nM
  TGI: 9400 nM
[8]
  GI50: 1290 nM
  TGI: 5390 nM
[9]
  GI50: 1330 nM
  TGI: 10800 nM
[10]
  GI50: 1490 nM
  TGI: 5090 nM
[11]
  GI50: 842 nM
  TGI: 1780 nM
[12]
  GI50: 867 nM
  TGI: 3460 nM
[13]
  GI50: 2850 nM
  TGI: 10900 nM
[14]
  GI50: 288 nM
  TGI: 3260 nM
[15]
  GI50: 591 nM
  TGI: 1940 nM
[16]
  GI50: 954 nM
  TGI: 2180 nM
[17]
  GI50: 3730 nM
  TGI: 10300 nM
[18]
  GI50: 2540 nM
  TGI: 25700 nM
[19]
  GI50: 850 nM
  TGI: 4480 nM
[20]
  GI50: 1680 nM
  TGI: 15300 nM
[21]
  GI50: 593 nM
  TGI: 3180 nM
[22]
  GI50: 264 nM
  TGI: 2240 nM
[23]
  GI50: 356 nM
  TGI: 3110 nM
[24]
  GI50: 2570 nM
  TGI: 23900 nM
[25]
  GI50: 1290 nM
  TGI: 2650 nM
[26]
  GI50: 1300 nM
  TGI: 6980 nM
[27]
  GI50: 1070 nM
  TGI: 3340 nM
[28]
  GI50: 1360 nM
  TGI: 5050 nM
[29]
  GI50: 5050 nM
  TGI: 12900 nM
